Consider three molecules from patent publication US12693289B2, “Application of compounds in the preparation of reagents for down-regulation of RUNX2” (Geneheal Biotechnology Co., Ltd., priority 2020, dated 2026).

Experiment [1] concerns RUNX2. Description: Computational studies and preliminary experimental studies of related disease models: Runx2 expression. The settings on record: general statement.
In experiment [2] the test system is RUNX2. Description: RUNX2 protein expression by Western blot in lung cancer cells A549. The experiment is classed as cell-based. The protocol: (§1) Cells are seeded in medium dishes (6 cm), cultured overnight, when the cell confluency is 80%, the original medium is discarded, PBS rinses the cells, and then replaced with Fostamatinib containing a final concentration of 10 uM or other concentrations, after 6-12 hours, the cells are harvested, RNA and protein liquid are extracted, and the protein and mRNA expression changes of RUNX2 are detected by Western blot and qPCR experiments, respectively.
On the technique in general: A western blot detects proteins with antibodies after separation by electrophoresis.

Experiment [3] concerns RUNX2 mRNA. In words: RUNX2 mRNA expression by qPCR in lung cancer cell H1299. It counts as cell-based. The settings on record: H1299 cells. The protocol:
as §1
In general terms: Real-time PCR tracks product formation cycle by cycle.

For experiment [4], the system named is RUNX2. Description: RUNX2 protein expression by Western blot in hepatoma cells BEL-7402. It counts as cell-based. The settings on record: BEL-7402 cells, 0, 2.5, 5 and 10 uM for 6 h, FIG. 5. The procedure:
as §1

Experiment [5] has as its system RUNX2 mRNA. Description: RUNX2 mRNA expression by qPCR in lung cancer cells A549. The experiment is classed as cell-based. The protocol: as §1
For experiment [6], the system named is RUNX2 mRNA. In words: Animal testing (intraperitoneal injection): RUNX2 mRNA in mouse liver tissue by qPCR. It counts as in vivo, C57BL/6 male mice. The settings on record: mice, 40 mg/kg intraperitoneal injection, 4 consecutive days, liver collected 48 hours after last injection, FIG. 6. The protocol:
• Drug: Fostamatinib MCE(HY-13038A) • Mice: 8-week-old C57BL/6 male mice • Concentration of administration: 40 mg/kg • Mode of administration: intraperitoneal injection
Experimental steps: mice are randomly divided into two groups, experimental group (fostamatinib) and control group (mock), before daily experiments, a certain amount of fostamatinib is accurately weighted and dissolve in 0.5% CMC ([…] cellulose), fully pipetted into a uniform suspension, the concentration of 4 mg/ml, and ready for use. According to the injection volume of 100 ul/10 g per mouse, the intraperitoneal injection was carried out for 4 consecutive days. The mouse liver tissue was collected 48 hours after the last injection, RNA was extracted, and the mRNA expression level of RUNX2 was detected by real-time fluorescence quantitative PCR (qPCR).

Experiment [7] deals with RUNX2. In words: RUNX2 protein expression by Western blot in lung cancer cell H1299. It counts as cell-based. To be noted: H1299 cells. The procedure: as §1
Where [8] appears, read: treated 6 hours, antibody changed, FIG. 3.
Where [9] appears, read: treated 8 hours, Fostamatinib 10 uM or other concentrations, FIG. 1.
Where [10] appears, read: treated 8 hours, Fostamatinib 10 uM or other concentrations, FIG. 2.

As to `COc1cc(Nc2ncc(F)c(Nc3ccc4c(n3)N(COP(=O)(O)O)C(=O)C(C)(C)O4)n2)cc(OC)c1OC` [Fostamatinib], in the experiment with RUNX2 [1], the “expression of Runx2” value was “significantly down-regulate”. The “protein expression level of RUNX2” value is listed as “down-regulated a certain trend” in the experiment on RUNX2 [2] (setting [8]), “tends to decrease” in the experiment on RUNX2 [2] (setting [9]), “down-regulated a certain trend” in the experiment with RUNX2 [7] (setting [8]) and “tends to decrease” in the experiment on RUNX2 [7] (setting [9]). Also, the “mRNA level of RUNX2” value with RUNX2 mRNA [3] (6 hours, FIG. 4) was “significantly reduced”; in the experiment on RUNX2 mRNA [5] (6 hours, FIG. 4), “significantly reduced”. In addition, the “mRNA expression level of RUNX2” value in the experiment on RUNX2 mRNA [3] (setting [10]) and in the experiment with RUNX2 mRNA [5] (setting [10]) was “decreases significantly” in each case. Further, in the experiment on RUNX2 [4], the “expression level of RUNX2 protein” value is “significantly reduced and dose-dependent”. In addition, in the experiment on RUNX2 mRNA [6], the “mRNA expression level of RUNX2 in liver tissue” value is given as “significantly reduce”.

Take `CNC(=O)c1cc(Oc2ccc(NC(=O)Nc3ccc(Cl)c(C(F)(F)F)c3)c(F)c2)ccn1` [Regorafenib]: in the experiment with RUNX2 [1], the “expression of Runx2” value is recorded as “significantly down-regulate”.

As for `COc1ccc2[nH]cc(CCNC(C)=O)c2c1` [melatonin, Melatonin], the “expression of Runx2” value with RUNX2 [1] is recorded as “significantly down-regulate”.
